# Experiments:
# [1] = tested on: panel of 60 human cancer cell lines; test: NCI/DTP in vitro anticancer screen, 60 cell lines; type: cell-based; details: NCI panel of 60 human cancer cell lines, value per compound (FIG. 10A)
# Description: The twenty-three compounds of Formula I shown below were evaluated for their antiproliferative effects in a panel of 60 human cancer cell lines as part of the in vitro anticancer screening services provided by the DTP (Developmental Therapeutics Program) of the US National Cancer Institute (NCI) U.S. National Cancer Institute (NCI) of the National Institutes of Health (NIH) in […], Md.
# The NCI conducts a standard 48/72 hour 60 cell line assay and an in vitro time course assay as described in Alley et al. (Cancer Res (1988) 48:589). In the standard 60 cell line assay, a minimum of 5 concentrations of the test compound are tested at 10-fold dilutions against 60 cell lines and cell growth is assayed at 48 and 72 hours using a sulphorhodamine B assay. For the time course analysis, tumour cells are treated with the test compound at various time points, then washed and grown in medium free of the test compound until the end of the experiment at 144 hrs. This assay employs 20% FBS to better approximate the minimum c×t (concentrations and times) test compound exposure conditions that are required to achieve activity in vivo. Cell growth is quantified by an MTT assay (similar to the XTT assay described above) and the concentration of the test compound required for growth inhibition is determined. […]
# [2] = NCI/DTP data; cited from earlier work
# [3] = tested on: Saccharmyces cerevisiae strains that have mutations in genes related to cell cycle control and DNA repair damage; details: panel of six yeast strains, single concentration; NCI/DTP data; cited from earlier work
# [4] = tested on: HT29 colon adenocarcinoma cells; test: morphological changes (vacuoles), HT29; type: cell-based, human; details: treatment for 24 hours
# Source text: These vacuoles are not formed in DMSO- or doxorubicin-treated cells. Moreover, the nuclear membrane is no longer evident in the phase-contrast images of cells treated with compound 45, even though the nucleus is still intact, as shown by DAPI staining.
structure (smiles),measurement,setting,value
Cc1[nH]c2ccccc2c1-c1nc2c3cccnc3c3ncccc3c2[nH]1 [Compound 90],GI50 (growth inhibition by 50%),[1],most effective compound
Cc1ccccc1-c1nc2c3ccccc3c3ccccc3c2[nH]1 [NCI #338970],activity in the In Vivo Anticancer Drug Screen,[2],None of these three compounds showed any activity
same,activity in Stage0 testing in the Yeast Anticancer Drug Screen,[3],active
"COc1cccc2c1C(=O)c1c(O)c3c(c(O)c1C2=O)C[C@@](O)(C(=O)CO)C[C@@H]3O[C@H]1C[C@H](N)[C@H](O)[C@H](C)O1 [doxorubicin, reference compound]",formation of vacuoles,[4],not formed
